Like-named read-outs stand apart in the source and are kept apart here.
Key:
5-lipoxygenase = biological target: T1, 5-lipoxygenase (Cavia porcellus, UniProt A0A286X958); experiment: 5-Lipoxygenase (5-LO) Assay: 5-HETE formation in supernatant of guinea pig PMNL sonicate; assay type: biochemical
T1 construct: 0.2 ml of the supernatant obtained from the PMNL sonicate; endogenous in cells; host or cells: casein-elicited guinea pig peritoneal polymorphonuclear leukocytes (PMNL), sonicate, 30,000 x g supernatant
T1 sequence (A0A286X958 1-674): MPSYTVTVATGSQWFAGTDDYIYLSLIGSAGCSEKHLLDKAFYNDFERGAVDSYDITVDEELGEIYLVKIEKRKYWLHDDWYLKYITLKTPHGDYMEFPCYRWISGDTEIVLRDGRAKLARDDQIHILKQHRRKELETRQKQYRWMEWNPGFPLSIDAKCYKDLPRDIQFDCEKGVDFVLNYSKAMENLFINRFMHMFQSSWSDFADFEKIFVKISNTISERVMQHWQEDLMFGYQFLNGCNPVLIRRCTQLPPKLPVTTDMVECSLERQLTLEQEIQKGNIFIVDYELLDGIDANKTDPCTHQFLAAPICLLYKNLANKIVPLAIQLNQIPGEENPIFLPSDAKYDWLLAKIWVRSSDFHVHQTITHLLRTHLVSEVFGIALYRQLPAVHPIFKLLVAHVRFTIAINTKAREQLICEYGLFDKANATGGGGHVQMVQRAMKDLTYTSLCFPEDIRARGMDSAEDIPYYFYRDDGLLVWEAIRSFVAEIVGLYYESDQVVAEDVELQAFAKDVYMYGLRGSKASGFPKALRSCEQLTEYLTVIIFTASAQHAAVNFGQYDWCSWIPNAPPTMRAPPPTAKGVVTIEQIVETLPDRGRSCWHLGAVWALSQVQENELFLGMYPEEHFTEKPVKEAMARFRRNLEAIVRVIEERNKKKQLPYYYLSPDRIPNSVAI
Experimental: Ten milliliters of a 2% casein solution is injected intraperitoneally to guinea pigs weighing 250-300 gm. After 16-18 hours, the guinea pigs are killed by suffocation in a carbon dioxide chamber. The peritoneal cavity is infused with 70 ml of saline and 40-50 ml of the fluid is recovered from the cavity. After centrifugation, cell pellets are washed twice in Hank's balanced salt solution (HBSS) without calcium ion.
The cells are then suspended in 5 ml of sodium phosphate buffer, pH 7.1 containing 1 mM, ethylene diamine tetraacetic acid (EDTA), and 0.1% gelatin. About 20-30×10^7 cells are obtained from one guinea pig.
The PMNL suspension is disrupted by five 1/2-second pulse sonication at the setting of 3 in a Branson Sonifier, Model 350, equipped with a microtip. The sonicates are combined and centrifuged at 30,000 ×g for 10 minutes. The supernatant is kept frozen at -70° C. until use.
Enzyme activity is determined by assaying for 5-hydroxy-6,8,11,14-eicosatetraenoic acid (5-HETE) formation by first incubating 0.2 ml of the supernatant obtained from the PMNL sonicate with the test compound, 1 mM CaCl2, 2 mM ATP, and 1 mM GSH for 5 minutes at 37° C. The mixture is treated with […] ^14 C-arachidonic acid and incubated at 37° C. an additional 10 minutes. The enzyme reaction is then stopped by the addition of 10 μl of 1M citric acid and 10 μl of an alcohol solution containing 20 mg/ml each of indomethacin and butylated hydroxyanisole (BHA). The reaction mixture is spotted (50 μl) on a silica gel plate (Baker TLC plate S1250-PA-19C) and subjected to TLC in a solvent system of ethyl acetate/2,2,4-trimethylpentane/glacialacetic acid/H2 O (90:50:20:100).
The radioactivity of the arachidonic acid and its metabolites (5-HETE and LTB4) is visualized from a developed x-ray film which had been exposed to the TLC plate 1-2 days. The amount of 5-HETE formed is quantitated by scraping the silica gel area corresponding to the spot on the x-ray film, and the radioactivity determined in a Isocap/300 liquid scintillation counter (Searle Analytic, Inc.).
The percent inhibition of the formation of 5-HETE is determined for each concentration of compound tested as compared to a control experiment wherein no test compound is added. The concentration and percent values are plotted on semi log paper and the concentration in which formation of 5-HETE is inhibited by 50% (IC50) is determined by interpolation.

[1] = test system: polymorphonuclear leukocytes (PMNs); experiment: H-PMN Assay: LTB4 content of supernatant of A23187-stimulated human PMNs by radioimmunoassay; assay type: cell-based; conditions: Leukocyte
Experimental: Sodium citrated venous blood is drawn from normal human subjects. After centrifugation at 300 ×g for 15 minutes, the platelet-rich layer of plasma is discarded and an equal volume of Hanks' balanced salt solution (HBSS) is added to the enriched cell fraction. This platelet-depleted cell suspension is then layered on an equal volume of Ficoll-Paque. After centrifugation for 40 minutes at 300 ×g, the bottom layer containing erythrocytes and polymorphonuclear leukocytes (PMNs) is diluted with two volumes of a 0.2% methocel solution. The erythrocytes are sedimented upon standing for 15 minutes, and the supernatant containing the PMNs is aspirated and centrifuged at 300 ×g, for 5 minutes. The cell pellet is then exposed to 0.2% NaCl for 30 seconds to lyse any remaining erythrocytes, and the ionic strength of the suspension is readjusted to 0.9% with NaCl. The PMNs are recovered by centrifugation at 300 ×g for 5 minutes and are suspended in HBSS to a concentration of 2 ×10^6 cells/ml.
The test compounds are dissolved in and diluted with dimethylsulfoxide (DMSO) which also contains 2×10^-6 M of the calcium ionophore, A23187. To 1 ml of the PMN suspension, 10 μl of the DMSO solution is added, and the mixture is incubated at 37° C. for 10 minutes. The PMNs are rapidly pelleted in a microcentrifuge, and the supernatant is kept at -20° C. for future determination of LTB4 content via the radioimmunoassay.

[2] = second table (Table III), known hydroxamic acid derivatives as comparison, read-out: 5-Lo (IC50)
[3] = Homo sapiens, second table (Table III), known hydroxamic acid derivatives as comparison
[4] = Table II, guinea pig PMNL sonicate supernatant, 14C-arachidonic acid, 37° C., read-out: 5-LO (concentration in which formation of 5-HETE is inhibited by 50%, IC50)
[5] = 10 min, Table II, human PMNs, calcium ionophore A23187, 37° C. for 10 minutes, LTB4 by radioimmunoassay

SMILES	IC50 (5-lipoxygenase; [4]) [nM]	also measured
CCCCOc1ccccc1C=CC(=O)N(C)O [reference compound]	–	IC50 (5-lipoxygenase; [2]): 41 nM; IC50 [1, 3]: 52 nM
CN(O)C(=O)C=Cc1ccccc1OCc1ccccc1 [reference compound]	–	IC50 (5-lipoxygenase; [2]): 54 nM; IC50 [1, 3]: 42 nM
CN(O)C(=O)C=Cc1ccccc1SCCCCCCc1ccccc1 [Example 39, 2-[10(6-phenylhexyl)thio]-N-hydroxy-N-methylcinnamamide]	33	–
CSc1ccccc1C(=O)N(C)O [reference compound]	–	IC50 (5-lipoxygenase; [2]): 44000 nM
CCCCCCc1cccc(C=CC(=O)N(C)O)c1SC [Example 17, 2-(methylthio)-3-n-hexyl-N-hydroxy-N-methylcinnamamide]	59	IC50 [1, 5]: 150 nM
CN(O)C(=O)C=Cc1ccccc1CCCc1ccccc1 [Example 43, 2-(3-phenylpropyl)-N-hydroxy-N-methylcinnamamide]	60	IC50 [1, 5]: 12 nM
C=CCCSc1ccccc1C=CC(=O)N(C)O [Example 2]	44	IC50 [1, 5]: 12 nM
CN(O)C(=O)C=Cc1ccccc1SCCc1ccccc1 [Example 25, 2-[1-(2-phenylethyl)thio]-N-hydroxy-N-methyl-cinnamamide]	14	–
CN(O)C(=O)C=Cc1ccc(CCCc2ccccc2)cc1[S+](C)[O-] (stereo not drawn) [Example 32, 2-methylsulfinyl-4-(3-phenylpropyl)-N-hydroxy-N-methylcinnamamide]	8400	–
CCCCCCc1ccc(C=CC(=O)N(C)O)c(SC)c1 [Example 19, 2-methylthio-4-n-hexyl-N-hydroxy-N-methylcinnamamide]	82	IC50 [1, 5]: 25 nM
CSc1ccc(Cc2ccccc2C=CC(=O)N(C)O)cc1 [Example 14, 2-(4-methylthiobenzyl)-N-hydroxy-N-methylcinnamamide]	31	–
CCc1ccc(CCCc2ccccc2)cc1C(=O)N(C)O [reference compound]	–	IC50 (5-lipoxygenase; [2]): 550 nM
CCCCSc1ccc(CCCc2ccccc2)cc1C=CC(=O)N(C)O [Example 29, 2-n-butylthio-5-(3-phenylpropyl)-N-hydroxy-N-methylcinnamamide]	94	IC50 [1, 5]: 58 nM
CCCCSc1ccc(CCCc2ccccc2)cc1C(=O)N(C)O [reference compound]	–	IC50 (5-lipoxygenase; [2]): 178 nM; IC50 [1, 3]: 440 nM
CCCCSc1ccccc1C=CC(=O)N(C)O [Example 33, 2-(n-butylthio)-N-hydroxy-N-methylcinnamamide]	47	IC50 [1, 5]: 22 nM
CN(O)C(=O)C=Cc1ccccc1SCC1CCCCC1 [Example 26, 2-cyclohexylmethylthio-N-hydroxy-N-methylcinnamamide]	14	–
CN(O)C(=O)C=Cc1ccccc1-c1ccccc1 [Example 24, 2-phenyl-N-hydroxy-N-methylcinnamamide]	131	–
CSc1ccc(CCCc2ccccc2)cc1C=CC(=O)N(C)O [Example 27, 2-(methylthio)-5-(3-phenylpropyl)-N-hydroxy-N-methylcinnamamide]	26	IC50 [1, 5]: 18 nM

SMILES	IC50 (5-lipoxygenase; [4]) [nM]	also measured
CCCCCCc1cccc(C=CC(=O)N(C)O)c1S(C)(=O)=O [Example 21, 2-methylsulfonyl-3-n-hexyl-N-hydroxy-N-methylcinnamamide]	166	IC50 [1, 5]: 461 nM
CN(O)C(=O)C=Cc1ccc(S(C)(=O)=O)cc1Cc1ccccc1 [Example 12, 2-benzyl-4-methylsulfonyl-N-hydroxy-N-methylcinnamamide]	695	–
CCCCCCc1ccc([S+](C)[O-])c(C=CC(=O)N(C)O)c1 (stereo not drawn) [Example 11, 2-methylsulfinyl-5-n-hexyl-N-hydroxy-N-methylcinnamamide]	96	IC50 [1, 5]: 71 nM
CCCCS(=O)(=O)c1ccccc1C=CC(=O)N(C)O [Example 34, 2-n-butylsulfonyl-N-hydroxy-N-methylcinnamamide]	1100	–
CCCCSc1ccccc1C=CC(=O)N(O)C(C)C [Example 28, 2-n-butylthio-N-hydroxy-N-isopropylcinnamamide]	8	–
CSc1ccc(CCCc2ccccc2)cc1C(=O)N(C)O [reference compound]	–	IC50 (5-lipoxygenase; [2]): 592 nM
CCCCc1cc(SC)ccc1C=CC(=O)N(C)O [Example 8, 2-n-butyl-4-methylthio-N-hydroxy-N-methylcinnamamide]	23	–
CCCCCCc1ccc(SC)c(C=CC(=O)N(C)O)c1 [Example 45, 2-methylthio-5-n-hexyl-N-hydroxy-N-methylcinnamamide]	58	IC50 [1, 5]: 20 nM
CN(O)C(=O)C=Cc1cc(CCCc2ccccc2)ccc1S(C)(=O)=O [Example 42, 2-methylsulfonyl-5-(3-phenylpropyl)-N-hydroxy-N-methylcinnamamide]	304	–
CN(O)C(=O)C=Cc1ccccc1Cc1ccc(S(C)(=O)=O)cc1 [Example 15, 2-(4-methylsulfonylbenzyl)-N-hydroxy-N-methylcinnamamide]	490	–
CN(O)C(=O)C=Cc1ccc(CCCc2ccccc2)cc1S(C)(=O)=O [Example 16, 2-methylsulfonyl-4-(3-phenylpropyl)-N-hydroxy-N-methylcinnamamide]	74	–
CCCC[S+]([O-])c1ccccc1C=CC(=O)N(C)O (stereo not drawn) [Example 36, 2-n-butylsulfinyl-N-hydroxy-N-methylcinnamamide]	2440	–
CSc1ccc(C=CC(=O)N(C)O)c(Cc2ccccc2)c1 [Example 13, 2-benzyl-4-methylthio-N-hydroxy-N-methylcinnamamide]	23	–
CN(O)C(=O)C=Cc1ccccc1SC(C)(C)C [Example 18, 2-tert-butylthio-N-hydroxy-N-methyl-cinnamamide]	175	–
CCCCSc1cc(C(F)(F)F)ccc1C=CC(=O)N(C)O [Example 7, 2-n-butylthio-4-trifluoromethyl-N-hydroxy-N-methylcinnamamide]	24	–
CSc1cc(CCCc2ccccc2)ccc1C=CC(=O)N(C)O [Example 6, 2-methylthio-4-(3-phenylpropyl)-N-hydroxy-N-methylcinnamamide]	7	–
CN(O)C(=O)C=Cc1cc(CCCc2ccccc2)ccc1[S+](C)[O-] (stereo not drawn) [Example 41, 2-methylsulfinyl-5-(3-phenylpropyl)-N-hydroxy-N-methylcinnamamide]	160	–

From patent publication US5028629A, “5-Lipoxygenase inhibitors” (Eli Lilly and Company, priority 1990, dated 1991)
